Data on 26 compounds can be found in patent US9873709B2 (priority 2013, dated 2018).

Each structure is given as a SMILES string.

In the test the test system is JAK1-dependent STAT6 phosphorylation downstream of IL-13 stimulation in TF-1 human erythroleukemia cells. As to the kind of experiment: cells. The settings on record: TF-1, read-out: IL-13-pSTAT6 IC50.
Experimental: Inhibitor potency (EC50) was determined in cell-based assays designed to measure JAK1 dependent STAT phosphorylation.
Prior to use in the assays, TF-1 cells were starved of GM-CSF overnight in OptiMEM medium (Life Technologies, Grand Island, N.Y.) supplemented with 0.5% charcoal/dextran stripped fetal bovine serum (FBS), 0.1 mM non-essential amino acids (NEAA), and 1 mM sodium pyruvate. The assays were run in 384-well plates in serum-free OptiMEM medium using 300,000 cells per well. In a second assay approach, BEAS-2B human bronchial epithelial cells obtained from ATCC were plated at 100,000 cells per well of a 96-well plate one day prior to the experiment. The BEAS-2B assay was run in complete growth medium (bronchial epithelial basal medium plus bulletkit; Lonza; Basel, Switzerland).
Test compounds were serially diluted 1:2 in DMSO and then diluted 1:50 in medium just before use. Diluted compounds were added to the cells, for a final DMSO concentration of 0.2%, and incubated for 30 min (for the TF-1 assay) or 1 hr (for the BEAS-2B assay) at 37° C. Then, cells were stimulated with human recombinant cytokine at their respective EC90 concentrations, as previously determined for each individual lot. […] The resultant samples were frozen in the plates at −80° C. Compound mediated inhibition of STAT6 phosphorylation was measured in the cell lysates using MesoScale Discovery (MSD) technology (Gaithersburg, Md.).
For `CCOC(=O)N1CC=C(c2cccn3nc(Nc4ccc(C(=O)N5CCC(Cc6cccnc6)C5)cc4)nc23)CC1` (centres unmarked) [Example 2-426, ethyl 4-[2-[4-[3-(3-pyridylmethyl)pyrrolidine-1-carbonyl]anilino]-[1,2,4]triazolo[1,5-a]pyridin-8-yl]-3,6-dihydro-2H-pyridine-1-carboxylate], the IC50 came to 51 nM. On to `CCOC(=O)N1CC=C(c2cccn3nc(Nc4ccc(C(=O)NCC5CCCNC5)cc4)nc23)CC1` (centres unmarked) [Example 2-427, ethyl 4-[2-[4-(3-piperidylmethylcarbamoyl)anilino]-[1,2,4]triazolo[1,5-a]pyridin-8-yl]-3,6-dihydro-2H-pyridine-1-carboxylate], for which the IC50 is 215 nM.

Regarding `CCOC(=O)N1CC=C(c2cccn3nc(Nc4ccc(C(=O)NCCC5CCCCN5)cc4)nc23)CC1` (centres unmarked) [Example 2-428, ethyl 4-[2-[4-[2-(2-piperidyl)ethylcarbamoyl]anilino]-[1,2,4]triazolo[1,5-a]pyridin-8-yl]-3,6-dihydro-2H-pyridine-1-carboxylate], the IC50 stood at 463 nM. `CCOC(=O)N1CC=C(c2cccn3nc(Nc4ccc(C(=O)N5CCCN(c6ccncc6)CC5)cc4)nc23)CC1` [Example 2-429, ethyl 4-[2-[4-[4-(4-pyridyl)-1,4-diazepane-1-carbonyl]anilino]-[1,2,4]triazolo[1,5-a]pyridin-8-yl]-3,6-dihydro-2H-pyridine-1-carboxylate]: the IC50 was found to be 27.4 nM. Then `CCOC(=O)N1CC=C(c2cccn3nc(Nc4ccc(C(=O)N5CC6(CN(C(C)=O)C6)C5)cc4)nc23)CC1` [Example 2-432, ethyl 4-[2-[4-(6-acetyl-2,6-diazaspiro[3.3]heptane-2-carbonyl)anilino]-[1,2,4]triazolo[1,5-a]pyridin-8-yl]-3,6-dihydro-2H-pyridine-1-carboxylate], with 43 nM.

`CCOC(=O)N1CC=C(c2cccn3nc(Nc4ccc(C(=O)NC5CCN(C)C5)cc4)nc23)CC1` (centres unmarked) [Example 2-433, ethyl 4-[2-[4-[(1-methylpyrrolidin-3-yl)carbamoyl]anilino]-[1,2,4]triazolo[1,5-a]pyridin-8-yl]-3,6-dihydro-2H-pyridine-1-carboxylate]: the IC50 amounted to 13.2 nM. For `CCOC(=O)N1CC=C(c2cccn3nc(Nc4ccc(C(=O)N[C@H]5[C@@H]6CNC[C@@H]65)cc4)nc23)CC1` [Example 2-434, ethyl 4-[2-[4-[[(1S,5R)-3-azabicyclo[3.10]hexan-6-yl]carbamoyl]anilino]-[1,2,4]triazolo[1,5-a]pyridin-8-yl]-3,6-dihydro-2H-pyridine-1-carboxylate], the IC50 was determined as 232 nM. Take `CCOC(=O)N1CC=C(c2cccn3nc(Nc4ccc(C(=O)N5CC6(CCCCN6)C5)cc4)nc23)CC1` [Example 2-437, ethyl 4-[2-[4-(2,5-diazaspiro[3.5]nonane-2-carbonyl)anilino]-[1,2,4]triazolo[1,5-a]pyridin-8-yl]-3,6-dihydro-2H-pyridine-1-carboxylate]: the IC50 stood at 33.7 nM. Next, `O=C(CCC(F)(F)F)N1CC=C(c2cccn3nc(Nc4ccc(C(=O)N5CCCC56CCNC6)cc4)nc23)CC1` (centres unmarked) [Example 2-440, 1-[4-[2-[4-(1,7-diazaspiro[4.4]nonane-1-carbonyl)anilino]-[1,2,4]triazolo[1,5-a]pyridin-8-yl]-3,6-dihydro-2H-pyridin-1-yl]-4,4,4-trifluoro-butan-1-one]: 156 nM. Take `CN(CCN)C(=O)c1ccc(Nc2nc3c(C4=CCN(C(=O)CCC(F)(F)F)CC4)cccn3n2)cc1` [Example 2-441, N-(2-aminoethyl)-N-methyl-4-[[8-[1-(4,4,4-trifluorobutanoyl)-3,6-dihydro-2H-pyridin-4-yl]-[1,2,4]triazolo[1,5-a]pyridin-2-yl]amino]benzamide]: the IC50 came out at 82.4 nM. As for `O=C(CCC(F)(F)F)N1CC=C(c2cccn3nc(Nc4ccc(C(=O)N5CCCC6(CCCNC6)C5)cc4)nc23)CC1` (centres unmarked) [Example 2-443, 1-[4-[2-[4-(2,8-diazaspiro[5.5]undecane-2-carbonyl)anilino]-[1,2,4]triazolo[1,5-a]pyridin-8-yl]-3,6-dihydro-2H-pyridin-1-yl]-4,4,4-trifluoro-butan-1-one], the IC50 was 72.3 nM. In the case of `O=C(NCC1CCNC1)c1ccc(Nc2nc3c(C4=CCN(C(=O)CCC(F)(F)F)CC4)cccn3n2)cc1` (centres unmarked) [Example 2-444, N-(pyrrolidin-3-ylmethyl)-4-[[8-[1-(4,4,4-trifluorobutanoyl)-3,6-dihydro-2H-pyridin-4-yl]-[1,2,4]triazolo[1,5-a]pyridin-2-yl]amino]benzamide], the IC50 is 154 nM.

With `O=C(NC1CCNCC1)c1ccc(Nc2nc3c(C4=CCN(C(=O)CCC(F)(F)F)CC4)cccn3n2)cc1` [Example 2-445, N-(4-piperidyl)-4-[[8-[1-(4,4,4-trifluorobutanoyl)-3,6-dihydro-2H-pyridin-4-yl]-[1,2,4]triazolo[1,5-a]pyridin-2-yl]amino]benzamide], the IC50 was found to be 456 nM. Consider `NCC1CCN(C(=O)c2ccc(Nc3nc4c(C5=CCN(C(=O)CCC(F)(F)F)CC5)cccn4n3)cc2)CC1` [Example 2-446, 1-[4-[2-[4-[4-(aminomethyl)piperidine-1-carbonyl]anilino]-[1,2,4]triazolo[1,5-a]pyridin-8-yl]-3,6-dihydro-2H-pyridin-1-yl]-4,4,4-trifluoro-butan-1-one], for which the IC50 is 208 nM. `NCC1CCN(C(=O)c2ccc(Nc3nc4c(C5=CCN(C(=O)CCC(F)(F)F)CC5)cccn4n3)cc2)C1` (centres unmarked) [Example 2-447, 1-[4-[2-[4-[3-(aminomethyl)pyrrolidine-1-carbonyl]anilino]-[1,2,4]triazolo[1,5-a]pyridin-8-yl]-3,6-dihydro-2H-pyridin-1-yl]-4,4,4-trifluoro-butan-1-one]: the IC50 was 275 nM. In the case of `O=C(CCC(F)(F)F)N1CC=C(c2cccn3nc(Nc4ccc(C(=O)N5CCO[C@@H]6CNC[C@H]65)cc4)nc23)CC1` [Example 2-448, 1-[4-[2-[4-[(4aR,7aR)-3,4a,5,6,7,7a-hexahydro-2H-pyrrolo[3,4-b][1,4]oxazine-4-carbonyl]anilino]-[1,2,4]triazolo[1,5-a]pyridin-8-yl]-3,6-dihydro-2H-pyridin-1-yl]-4,4,4-trifluoro-butan-1-one], the IC50 was determined as 120 nM. `O=C(CCC(F)(F)F)N1CC=C(c2cccn3nc(Nc4ccc(C(=O)N5C[C@H]6CN[C@H]6C5)cc4)nc23)CC1` [Example 2-449, 1-[4-[2-[4-[(1R,5R)-3,6-diazabicyclo[3.2.0]heptane-3-carbonyl]anilino]-[1,2,4]triazolo[1,5-a]pyridin-8-yl]-3,6-dihydro-2H-pyridin-1-yl]-4,4,4-trifluoro-butan-1-one]: the IC50 was 355 nM. For `O=C(CCC(F)(F)F)N1CC=C(c2cccn3nc(Nc4ccc(C(=O)N5CCCCC56CCNCC6)cc4)nc23)CC1` [Example 2-450, 1-[4-[2-[4-(1,9-diazaspiro[5.5]undecane-1-carbonyl)anilino]-[1,2,4]triazolo[1,5-a]pyridin-8-yl]-3,6-dihydro-2H-pyridin-1-yl]-4,4,4-trifluoro-butan-1-one], the IC50 was determined as 115 nM. Take `CN(C(=O)c1ccc(Nc2nc3c(C4=CCN(C(=O)CCC(F)(F)F)CC4)cccn3n2)cc1)C1CNC1` [Example 2-451]: the IC50 is 287 nM. For the compound `NCC12CC(CN1C(=O)c1ccc(Nc3nc4c(C5=CCN(C(=O)CCC(F)(F)F)CC5)cccn4n3)cc1)C2` [Example 2-452, 1-[4-[2-[4-[4-(aminomethyl)-3-azabicyclo[2.1.1]hexane-3-carbonyl]anilino]-[1,2,4]triazolo[1,5-a]pyridin-8-yl]-3,6-dihydro-2H-pyridin-1-yl]-4,4,4-trifluoro-butan-1-one], the IC50 came to 134 nM. In the case of `O=C(CCC(F)(F)F)N1CC=C(c2cccn3nc(Nc4ccc(C(=O)N5CCOC6CCNCC65)cc4)nc23)CC1` (centres unmarked) [Example 2-453, 1-[4-[2-[4-(2,3,4a,5,6,7,8,8a-octahydropyrido[4,3-b][1,4]oxazine-4-carbonyl)anilino]-[1,2,4]triazolo[1,5-a]pyridin-8-yl]-3,6-dihydro-2H-pyridin-1-yl]-4,4,4-trifluoro-butan-1one], the IC50 is 171 nM. As for `O=C(N[C@H]1[C@@H]2CNC[C@@H]21)c1ccc(Nc2nc3c(C4=CCN(C(=O)CCC(F)(F)F)CC4)cccn3n2)cc1` [Example 2-454, N-[(1R,5S)-3-azabicyclo[3.1.0]hexan-6-yl]-4-[[8-[1-(4,4,4-trifluorobutanoyl)-3,6-dihydro-2H-pyridin-4-yl]-[1,2,4]triazolo[1,5-a]pyridin-2-yl]amino]benzamide], the IC50 is 87.9 nM.

For `O=C(NCCN1CCCCC1)c1ccc(Nc2nc3c(C4=CCN(C(=O)CCC(F)(F)F)CC4)cccn3n2)cc1` [Example 2-455, N-[2-(1-piperidyl)ethyl]-4-[[8-[1-(4,4,4-trifluorobutanoyl)-3,6-dihydro-2H-pyridin-4-yl]-[1,2,4]triazolo[1,5-a]pyridin-2-yl]amino]benzamide], the IC50 amounted to 5.5 nM. Take `O=C(CCC(F)(F)F)N1CC=C(c2cccn3nc(Nc4ccc(C(=O)N5CCC(c6ccncc6)CC5)cc4)nc23)CC1` [Example 2-456, 4,4,4-trifluoro-1-[4-[2-[4-[4-(4-pyridyl)piperidine-1-carbonyl]anilino]-[1,2,4]triazolo[1,5-a]pyridin-8-yl]-3,6-dihydro-2H-pyridin-1-yl]butan-1-one]: the IC50 is 7.5 nM.

As to `CN1C2COCC1CN(C(=O)c1ccc(Nc3nc4c(C5=CCN(C(=O)CCC(F)(F)F)CC5)cccn4n3)cc1)C2` [Example 2-458, 4,4,4-trifluoro-1-[4-[2-[4-(9-methyl-3-oxa-7,9-diazabicyclo[3.3.1]nonane-7-carbonyl)anilino]-[1,2,4]triazolo[1,5-a]pyridin-8-yl]-3,6-dihydro-2H-pyridin-1-yl]butan-1-one], the concentration for half-maximal inhibition (IC50) was 45.9 nM. Then `CN1CCC(NC(=O)c2ccc(Nc3nc4c(C5=CCN(C(=O)CCC(F)(F)F)CC5)cccn4n3)cc2)C1` (centres unmarked) [Example 2-459, N-(1-methylpyrrolidin-3-yl)-4-[[8-[1-(4,4,4-trifluorobutanoyl)-3,6-dihydro-2H-pyridin-4-yl]-[1,2,4]triazolo[1,5-a]pyridin-2-yl]amino]benzamide], with 20.5 nM.
